Assay results as given in article PMC7375803, “TBR-760, a Dopamine-Somatostatin Compound, Arrests Growth of Aggressive Nonfunctioning Pituitary Adenomas in Mice” (Endocrinology, 2020).
Several values for one entry are separate records, joined by “and”; a condition that tells them apart may be missing. Identical values can stand only once. Like-named read-outs stand apart in the source and are kept apart here.

Legend:
[1] = target: T1, human somatostatin type 2 receptor (SSTR2) (Homo sapiens, UniProt P30874); conditions: read-out: SSTR2 agonist activity cAMP, EC50; cited from earlier work
T1 sequence (P30874 whole entry): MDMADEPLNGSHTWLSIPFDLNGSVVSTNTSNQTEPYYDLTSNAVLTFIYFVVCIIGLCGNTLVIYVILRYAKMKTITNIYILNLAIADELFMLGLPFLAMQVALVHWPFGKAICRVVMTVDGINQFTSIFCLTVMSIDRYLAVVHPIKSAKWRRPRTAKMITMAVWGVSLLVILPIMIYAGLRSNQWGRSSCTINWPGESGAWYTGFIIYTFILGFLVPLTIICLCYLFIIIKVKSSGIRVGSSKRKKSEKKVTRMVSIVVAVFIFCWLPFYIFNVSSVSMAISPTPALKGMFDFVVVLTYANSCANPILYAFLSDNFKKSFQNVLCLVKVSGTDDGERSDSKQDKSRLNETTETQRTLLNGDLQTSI

SSTR4 = target: SSTR4; parameters: method as in earlier work; conditions: read-out: binding affinity for SSTR4; cited from earlier work
[2] = Subcutaneous pharmacokinetics, plasma by HPLC-MS/MS; format: in vivo; conditions: mouse, 4 mg/kg sc, POMC KO mice, n = 4
Description: To study and compare the pharmacokinetic behavior of TBR-760, the DA analogue BIM-53097 and the SST analogue BIM-23023 solutions with appropriate concentrations were prepared as described earlier and mice were injected subcutaneously at time 0 with a dose of 4 mg/kg. Blood samples were collected at 15 and 30 minutes, and 1, 2, 4, 6, 8 and 24 hours after injection, and processed to obtain plasma. The determination of TBR-760, BIM-23023, or BIM-53097 was based on 100 μL plasma volume and was carried out by high-pressure liquid chromatography tandem mass spectrometry (HPLC-MS/MS) after protein precipitation with acetonitrile and subsequent solid-phase extraction. HPLC-MS/MS was performed on an AB SCIEX API 4000 LC-MS/MS with electrospray ionization operated in multiple-reaction monitoring mode for the analysis (Waters Corporation). Pharmacokinetic parameters were calculated by noncompartmental analyses using WinNonLin (version 5.2).

[3] = system: NFPAs in heterozygous POMC KO mice; test: Study 2: TBR-760 vs individual DA and SST agonists on pituitary tumor growth; format: in vivo, mouse
Source text: (§1) Wild-type mice (3 male, 3 female) at age 6 months were scanned by MRI to determine average normal pituitary size. Heterozygous POMC KO mice were screened using MRI starting at average age 6.5 months (range, 5.5-9.5 months). These screening scans served to select animals for the study once reaching the baseline tumor volume of 10 mm^3 and to ensure reasonably homogenous groups. Most animals developed tumors within an average of 1.5 months after their first scan and at that point were randomly assigned to experimental groups. Two studies were conducted, the first comparing several doses of TBR-760 vs vehicle, and a second study comparing a fully effective dose of TBR-760 vs the molar equivalent and the 10× molar equivalent (based on the dose of TBR-760) of a pure SST agonist (BIM-23023), a pure DA agonist (BIM-53097), and the combination of the two. The concentration of the DA agonist was doubled to reflect the 2:1 ratio of DA:SST moieties present in TBR-760.
(§2) All groups were composed of 3 males and 3 females, with the exception of the vehicle- and TBR-760-treated groups (n = 8, 4 males/4 females) of the second study, which were maintained for survival analysis as described later. Once entered into the study, all mice received MRI scans for baseline, followed by scans at 2 weeks, 1 month, and 2 months after the baseline scan. Once tumor volume reached 10 mm^3 in the heterozygous POMC KO mice, the mice were treated by daily subcutaneous injection, with each injection given at the same approximate time of day. The mice were euthanized 8 weeks after start of treatment (ie, after the last scan), and pituitary tissue was collected, weighed, and flash-frozen, with the exception of the TBR-760 and vehicle-treated groups in the second study, which were maintained for survival analysis.
(§3) All studies were conducted on a Bruker 7T/210 mm Biospec system (Bruker) at the Duke Center for In Vivo Microscopy. The initial screening scans, conducted at age 6 months in wild-type mice, and average age 6.5 months (range, 5.5-9.5 months) in heterozygous POMC KO mice, were fast scans with scan times of 4 minutes (rapid acquisition with refocused echoes [RARE], repetition time [TR] = 1 second, echo time [TE] = 50 ms; 100 μm × 100 μm × 0.4 mm). Images were analyzed in ImageJ ([36]). Treatment monitoring MRI scans were carried out at 2 weeks, 1 month, and 2 months after start of treatment. For all monitoring scans, parameters were 40-minute scan time (RARE; TR = 5 seconds, TE = 50 ms; 100 μm × 100 μm × 0.3 mm). All scans included complete sectional scans of the pituitary, which were used to calculate tumor volume. MR images were preprocessed using bias field correction to account for the sensitivity profile of the receive coil, thus enhancing the tumor contrast. A trained analyst then manually segmented the tumor on each slice of the MRI. Volume of the tumor was then calculated by multiplying the area of the segmentation by the slice thickness for each slice of the image.
To compare the ability of TBR-760 to arrest aggressive pituitary tumor growth in the POMC KO mouse model vs its individual SST or DA components, either alone or in combination, heterozygous POMC KO mice were again randomly assigned to treatment groups when they presented with tumors approximately 10 mm^3 in size as determined by MRI. […]

SSTR1 = target: SSTR1; parameters: method as in earlier work; conditions: read-out: binding affinity for SSTR1; cited from earlier work
[4] = target: T2, human dopamine type 2 receptor (D2R) (Homo sapiens, UniProt P14416); test: D2R receptor binding affinity; conditions: internal Tiburio data
T2 sequence (P14416 whole entry): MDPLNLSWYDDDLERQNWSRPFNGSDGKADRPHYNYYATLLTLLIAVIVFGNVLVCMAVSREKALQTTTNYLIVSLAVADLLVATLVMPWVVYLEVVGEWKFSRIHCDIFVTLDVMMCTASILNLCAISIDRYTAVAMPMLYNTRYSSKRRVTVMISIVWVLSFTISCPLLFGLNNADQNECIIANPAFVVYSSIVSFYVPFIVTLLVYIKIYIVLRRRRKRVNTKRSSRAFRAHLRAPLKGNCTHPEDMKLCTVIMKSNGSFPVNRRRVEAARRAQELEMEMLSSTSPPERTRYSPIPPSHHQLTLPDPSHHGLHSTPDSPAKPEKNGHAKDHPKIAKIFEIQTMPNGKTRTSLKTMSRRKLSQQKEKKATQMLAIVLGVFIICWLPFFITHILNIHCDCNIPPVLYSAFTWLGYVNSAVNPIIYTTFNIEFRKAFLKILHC
Source text: Table 1. Receptor binding affinity and agonist activity at human dopamine type 2 and somatostatin type 2 | column: D2R binding, Ki nM

[5] = target: T2, human dopamine type 2 receptor (D2R); test: D2R agonist activity, cAMP; format: cell-based; conditions: internal Tiburio data
Description: Table 1. Receptor binding affinity and agonist activity at human dopamine type 2 and somatostatin type 2 | column: D2R agonist activity cAMP, EC50 nM

residual NFPAs = system: residual NFPAs; parameters: method as in PMID 30540568; conditions: after 24 months, cited from earlier work
[6] = system: NFPAs in heterozygous POMC KO mice; test: Survival analysis of tumor-bearing mice; format: in vivo, mouse; conditions: TBR-760 1 mg/kg/day, at euthanasia; vehicle 45.76 ± 6.28
Source text: In the second study, the survival of TBR-760–treated mice was examined and compared with vehicle-treated mice. After the initial 8-week treatment period was complete, vehicle-treated mice were paired with TBR-760–treated mice, and treatment continued as before. When a vehicle-treated mouse died, its TBR-760-treated mouse partner continued to receive treatment for an additional 8 weeks before being euthanized. On death or euthanasia, pituitaries were collected, weighed, and flash-frozen.
Statistical analysis was performed using PRISM8 (GraphPad 2018). An ANOVA was performed followed by post hoc analysis with Dunnett’s multiple comparisons test. Results are expressed as mean ± SEM. P less than .05 was considered statistically significant. Survival analysis was performed using PRISM8 using the Gehan-Breslow-Wilcoxon test to compare the survival curves.

[7] = system: cultured human NFPA cells; parameters: method as in PMID 18509006; conditions: in vitro; cited from earlier work
[8] = system: NFPAs in heterozygous POMC KO mice; test: Study 1: TBR-760 dose comparison on pituitary tumor growth (MRI volume, tumor weight); format: in vivo, mouse; conditions: mean ± SEM; for tumor volume after 8 weeks of treatment: vehicle 72.5 ± 5.9; for tumor weight after 8 weeks of treatment: vehicle 36 ± 7.4
Source text: as §1, §2, §3
At that time, treatment was initiated with daily subcutaneous injections of either vehicle or 0.125, 1.25, or 12.5 mg/kg of TBR-760 for 8 weeks. […] The dramatic difference in tumor growth between vehicle- and TBR-760–treated mice was further confirmed by visual comparison and measurement of weights of pituitaries on death of the mice (Fig. 7B and 7C).

[9] = target: T1, human somatostatin type 2 receptor (SSTR2); test: SSTR2 receptor binding affinity; conditions: internal Tiburio data
Source text: Table 1. Receptor binding affinity and agonist activity at human dopamine type 2 and somatostatin type 2 | column: SSTR2 binding, Ki nM

[10] = target: T1, human somatostatin type 2 receptor (SSTR2); test: SSTR2 agonist activity, cAMP; format: cell-based; conditions: internal Tiburio data
Description: Table 1. Receptor binding affinity and agonist activity at human dopamine type 2 and somatostatin type 2 | column: SSTR2 agonist activity cAMP, EC50 nM

In the case of `CC[C@@H]1NC(=O)[C@H](CCCCN)NC(=O)[C@@H](Cc2c[nH]c3ccccc23)NC(=O)[C@H](Cc2ccc(O)cc2)NC(=O)[C@@H](NC(=O)[C@H](N)Cc2ccccc2)CSSC[C@@H](C(=O)N[C@H](C(N)=O)[C@@H](C)O)NC1=O` [BIM-23023, reference compound], the EC50 [1] is listed as 0.14 nM, the Ki (SSTR4) is listed as over 1000 nM and the AUC(0-inf) [2] is listed as 2860 ng·h/mL. It also gave a Cmax [2] of 2300 ng/mL, a Tmax [2] of 0.25 h and a half-life [2] of 0.59 h. The “pituitary weight vs untreated, tumor-bearing controls” value ([3]; after 8 weeks of treatment) was “not significantly different”, the “effect on tumor growth vs vehicle” value ([3]; either dose (1 or 10 mg/kg) daily sc, 8 weeks) was “failed to show significant effects on tumor growth” and the Ki (SSTR1) was over 1000 nM.

In the case of `C=CCN1C[C@H](C(=O)N(CCCN(C)C)C(=O)NCC)C[C@@H]2c3cccc4[nH]cc(c34)C[C@H]21` [Cabergoline], the Ki [4] is listed as 0.8 nM, the EC50 [5] is listed as 0.026 nM and the “patients with significant tumor shrinkage” value (residual NFPAs; nonintervention group 10.5%) is listed as 28.8%. For the same molecule, the “patients with tumor growth” value (residual NFPAs; nonintervention group 15.8%) was 5.1% and the “patients with stabilization of tumor” value (residual NFPAs; nonintervention group 73.7%) was 66.1%.

In the case of `CCCN1C[C@H](CSCC(=O)NCCCC[C@@H](NC(=O)CSC[C@@H]2C[C@@H]3c4cccc5[nH]cc(c45)C[C@H]3N(CCC)C2)C(=O)N[C@H]2CSSC[C@@H](C(=O)N[C@H](C(N)=O)[C@@H](C)O)NC(=O)[C@H](CC)NC(=O)[C@H](CCCCN)NC(=O)[C@@H](Cc3c[nH]c4ccccc34)NC(=O)[C@H](Cc3ccc(O)cc3)NC2=O)C[C@@H]2c3cccc4[nH]cc(c34)C[C@H]21` [TBR-760], the final tumor weight [6] is listed as 5.42 ± 0.52 mg, the “proportion of NFPAs examined with significant inhibition of cell proliferation” value [7] is listed as “approximately 60%” and the Ki [4] is listed as 12.1 nM. For the same molecule, the EC50 [5] was 0.064 nM, the Ki (SSTR4) was over 1000 nM and the “tumor volume after 8 weeks of treatment” value ([8]; 0.125 mg/kg daily sc) was 16.5 ± 2.6 mm^3. For the same molecule, the “tumor weight after 8 weeks of treatment” value ([8]; 0.125 mg/kg daily sc) was 5.4 ± 0.67 mg, the “tumor volume after 8 weeks of treatment” value ([8]; 1.25 mg/kg daily sc) was 10.9 ± 1.1 mm^3 and the “tumor weight after 8 weeks of treatment” value ([8]; 1.25 mg/kg daily sc) was 5.0 ± 0.61 mg. For the same molecule, the “tumor volume after 8 weeks of treatment” value ([8]; 12.5 mg/kg daily sc) was 12.3 ± 1.0 mm^3, the “tumor weight after 8 weeks of treatment” value ([8]; 12.5 mg/kg daily sc) was 4.8 ± 0.61 mg and the Ki [9] was 0.01 nM. For the same molecule, the AUC(0-inf) [2] was 1880 ng·h/mL, the Cmax [2] was 354 ng/mL and the Tmax [2] was 2 h. The half-life [2] was 2.56 h, the EC50 [10] was 1.22 nM and the “tumor volume after 8 weeks of treatment” value ([3]; 1 mg/kg/day sc, 8 weeks, mean ± SEM, vehicle 54.6 ± 10.6) was 8.5 ± 1.3 mm^3. For the same molecule, the “proportion of treated mice with tumor shrinkage” value ([3]; TBR-760 1 mg/kg/day sc) was 20%, the “mean tumor volume reduction in mice whose tumors shrank” value ([3]; TBR-760 1 mg/kg/day sc, 1 mg/kg/day) was 44.7% and 45% and the Ki (SSTR1) was 843 nM.
